Experimental data as given in patent publication US9795601B2, “Compositions and methods for cancer treatment” (BIOVISTA, INC., priority 2010, dated 2017).

Assays:
Type in all cases: cell-based
A172 (Malignant glioma) = assay: Cancer cell lines assay (Alamar Blue, day 5), A172; conditions: Homo sapiens
Experimental: (§1) EXAMPLE. Cancer cell lines assay. Compounds are assayed for IC50 over a range of 50 nM to 1 mM, in triplicate, in standard 96-well plates. Initially, the number of cells in each line to plate on day 0 is determined, in order to have <80% confluency on day 5. Cells are plated on day 0. Cells are allowed to adhere 4 hours prior to adding the compound. On day 5 Alamar Blue is added to the media of the cells at 10% of the total volume of the well and incubated for approximately 4 hours at tissue culture conditions. The Alamar Blue reagent consists of an oxidation-reduction indicator that yields a colorimetric change and a fluorescent signal in response to metabolic activity. The dose response curves is evaluated in a BioTek Synergy 2 plate reader. The readout fluorescence values are then be exported to spreedsheet software, such as Microsoft Excel or GraphPad, and are graphed to show the reduction in relative cell number in response to compounds added to culture. Maximum inhibition is expressed as the maximum of:
(§2) [formula] over all dosages tested for each drug.
(§3) EXAMPLE. Linezolid is diluted in DMSO. One vial is thawed and administered on day 0, at concentrations 10 μM to 1 mM. Paclitaxel (0.1 μM) is used as a positive control. DMSO alone is used as a negative control. On day 5 Alamar Blue is added to the media of the cells at 10% of the total volume of the well and incubated for approximately 4 hours at tissue culture conditions.

HT-144 (Melanoma) = assay: Cancer cell lines assay (Alamar Blue, day 5), HT-144; conditions: Homo sapiens
Experimental: as §1, §2, §3

C32 (Melanoma) = assay: Cancer cell lines assay (Alamar Blue, day 5), C32; conditions: Homo sapiens, C32 cells
Experimental: as §1, §2
(§4) EXAMPLE. Linezolid is diluted in DMSO. One vial is thawed and administered on day 0, at concentrations 10 μM to 1 mM. Paclitaxel (0.1 μM) is used as a positive control. DMSO alone is used as a negative control. […]

SW-579 (Thyroid Cancer) = assay: Cancer cell lines assay (Alamar Blue, day 5), SW-579; conditions: SW579; SW-579 cells, Linezolid concentration 412 μM, negative control DMSO, p 0.0490; read-out: Linezolid % Maximum inhibition relative to negative control
Experimental: as §1, §2, §4

Row | SMILES | IC50 (A172 (Malignant glioma); A 172, 120 h, A172 (Malignant glioma) cells, Alamar Blue on day 5, read-out: Linezolid IC50) | inhibition at 1000 µM (A172 (Malignant glioma); A 172, A172 cells, Linezolid concentration 1 mM, negative control DMSO, p 6 × 10^−6, read-out: Linezolid % Maximum inhibition relative to negative control) | IC50 (HT-144 (Melanoma); 120 h, HT-144 (Melanoma) cells, Alamar Blue on day 5, read-out: Linezolid IC50) | inhibition at 1000 µM (HT-144 (Melanoma); HT-144 cells, Linezolid concentration 1 mM, negative control DMSO, p 0.00250, read-out: Linezolid % Maximum inhibition relative to negative control) | inhibition at 1000 µM (C32 (Melanoma); Linezolid concentration 1 mM, negative control DMSO, p 0.000720, read-out: Linezolid % Maximum inhibition relative to negative control) | inhibition at 412 µM (SW-579 (Thyroid Cancer)) | inhibition at 0.1 µM (A172 (Malignant glioma); A 172, A172 cells, 0.1 μM paclitaxel (positive control), read-out: Paclitaxel % Maximum inhibition relative to negative control) | inhibition at 0.1 µM (HT-144 (Melanoma); HT-144 cells, 0.1 μM paclitaxel (positive control), read-out: Paclitaxel % Maximum inhibition relative to negative control) | inhibition at 0.1 µM (C32 (Melanoma); 0.1 μM paclitaxel (positive control), read-out: Paclitaxel % Maximum inhibition relative to negative control)
1 | CC(=O)NC[C@H]1CN(c2ccc(N3CCOCC3)c(F)c2)C(=O)O1 [Linezolid] | 600 to 700 µM | 81.8% | 500 µM | 90.7% | 26.1% | 14.5% | – | – | –
2 | CC(=O)O[C@H]1C(=O)[C@@]2(C)[C@H]([C@H](OC(=O)c3ccccc3)[C@]3(O)C[C@H](OC(=O)[C@H](O)[C@@H](NC(=O)c4ccccc4)c4ccccc4)C(C)=C1C3(C)C)[C@]1(OC(C)=O)CO[C@@H]1C[C@@H]2O [Paclitaxel] | – | – | – | – | – | – | 92.9% | 86.9% | 90.8%
